# According to patent publication US9669003B2, “Use of flavone and flavanone derivatives in preparation of sedative and hypnotic drugs” (priority 2012, dated 2017):
# Marks after values point to notes of the source that are not given here.
# System: Kunming mice
# Test: Influence on autonomic activity of normal mice (ZIL-2 mice autonomic activity meter, counts within 10 min)
# Format: in vivo
# Settings: intragastric, 25 mg/kg, 1 h after administration, x ± s, n = 10
# Summary of the method: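 Kunming mice (10 per group, half each sex) were dosed at 25, 50 or 100 mg/kg in 0.5% CMC-Na. Spontaneous activity counts over 10 min were recorded at 1 h, 2 h and 24 h post-dose. Groups were compared by ANOVA with Dunnett's test after Levene's check.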
row,Structure (SMILES),Times of activities in 1 h after drug administration/10 min
1,"COc1ccc(-c2cc(=O)c3c(OC)c(OC)c(OC)c(OC)c3o2)cc1 [Example 8, 5,6,7,8,4′-penta methoxyl-flavone]",301.3 ± 43.5 /10 min
2,"COc1cc(OC)c2c(=O)cc(-c3cc(OC)c(OC)c(OC)c3)oc2c1 [Example 1, 5,7,3′,4′,5′-penta methoxyl-flavone]",215.3 ± 40.1 /10 min

# Same assay, conditions: intragastric, 25 mg/kg, 2 h after administration, x ± s, n = 10
row,Structure (SMILES),Times of activities in 2 h after drug administration/10 min
1,"COc1ccc(-c2cc(=O)c3c(OC)c(OC)c(OC)c(OC)c3o2)cc1 [Example 8, 5,6,7,8,4′-penta methoxyl-flavone]",290.2 ± 39.6 /10 min
2,"COc1cc(OC)c2c(=O)cc(-c3cc(OC)c(OC)c(OC)c3)oc2c1 [Example 1, 5,7,3′,4′,5′-penta methoxyl-flavone]",211.2 ± 36.3 /10 min

# Same assay, conditions: intragastric, 25 mg/kg, 24 h after administration, x ± s, n = 10
row,Structure (SMILES),Times of activities in 24 h after drug administration/10 min
1,"COc1ccc(-c2cc(=O)c3c(OC)c(OC)c(OC)c(OC)c3o2)cc1 [Example 8, 5,6,7,8,4′-penta methoxyl-flavone]",286.4 ± 75.2 /10 min
2,"COc1cc(OC)c2c(=O)cc(-c3cc(OC)c(OC)c(OC)c3)oc2c1 [Example 1, 5,7,3′,4′,5′-penta methoxyl-flavone]",274.4 ± 81.2 /10 min

# Same assay, conditions: intragastric, 50 mg/kg, 1 h after administration, x ± s, n = 10
row,Structure (SMILES),Times of activities in 1 h after drug administration/10 min
1,"COc1ccc(-c2cc(=O)c3c(OC)c(OC)c(OC)c(OC)c3o2)cc1 [Example 8, 5,6,7,8,4′-penta methoxyl-flavone]",262.1 ± 55.5 /10 min
2,"COc1cc(OC)c2c(=O)cc(-c3cc(OC)c(OC)c(OC)c3)oc2c1 [Example 1, 5,7,3′,4′,5′-penta methoxyl-flavone]",137.1 ± 52.3 /10 min

# Same assay, conditions: intragastric, 50 mg/kg, 2 h after administration, x ± s, n = 10
row,Structure (SMILES),Times of activities in 2 h after drug administration/10 min
1,"COc1ccc(-c2cc(=O)c3c(OC)c(OC)c(OC)c(OC)c3o2)cc1 [Example 8, 5,6,7,8,4′-penta methoxyl-flavone]",244.7 ± 53.9 /10 min
2,"COc1cc(OC)c2c(=O)cc(-c3cc(OC)c(OC)c(OC)c3)oc2c1 [Example 1, 5,7,3′,4′,5′-penta methoxyl-flavone]",168.5 ± 57.9 /10 min

# Same assay, conditions: intragastric, 50 mg/kg, 24 h after administration, x ± s, n = 10
row,Structure (SMILES),Times of activities in 24 h after drug administration/10 min
1,"COc1ccc(-c2cc(=O)c3c(OC)c(OC)c(OC)c(OC)c3o2)cc1 [Example 8, 5,6,7,8,4′-penta methoxyl-flavone]",299.8 ± 76.4 /10 min
2,"COc1cc(OC)c2c(=O)cc(-c3cc(OC)c(OC)c(OC)c3)oc2c1 [Example 1, 5,7,3′,4′,5′-penta methoxyl-flavone]",275.2 ± 79.3 /10 min

# Same assay, conditions: intragastric, 100 mg/kg, 1 h after administration, x ± s, n = 10
row,Structure (SMILES),Times of activities in 1 h after drug administration/10 min
1,"COc1ccc(-c2cc(=O)c3c(OC)c(OC)c(OC)c(OC)c3o2)cc1 [Example 8, 5,6,7,8,4′-penta methoxyl-flavone]",185.7 ± 41.6 /10 min
2,"COc1cc(OC)c2c(=O)cc(-c3cc(OC)c(OC)c(OC)c3)oc2c1 [Example 1, 5,7,3′,4′,5′-penta methoxyl-flavone]",98.2 ± 41.9 /10 min

# Same assay, conditions: intragastric, 100 mg/kg, 2 h after administration, x ± s, n = 10
row,Structure (SMILES),Times of activities in 2 h after drug administration/10 min
1,"COc1ccc(-c2cc(=O)c3c(OC)c(OC)c(OC)c(OC)c3o2)cc1 [Example 8, 5,6,7,8,4′-penta methoxyl-flavone]",167.2 ± 48.5 /10 min
2,"COc1cc(OC)c2c(=O)cc(-c3cc(OC)c(OC)c(OC)c3)oc2c1 [Example 1, 5,7,3′,4′,5′-penta methoxyl-flavone]",96.2 ± 55.7 /10 min

# Same assay, conditions: intragastric, 100 mg/kg, 24 h after administration, x ± s, n = 10
row,Structure (SMILES),Times of activities in 24 h after drug administration/10 min
1,"COc1ccc(-c2cc(=O)c3c(OC)c(OC)c(OC)c(OC)c3o2)cc1 [Example 8, 5,6,7,8,4′-penta methoxyl-flavone]",280.4 ± 84.2 /10 min
2,"COc1cc(OC)c2c(=O)cc(-c3cc(OC)c(OC)c(OC)c3)oc2c1 [Example 1, 5,7,3′,4′,5′-penta methoxyl-flavone]",301.2 ± 80.7 /10 min

# System: Kunming mice
# Test: Influence on hypnosis effect with pentobarbital sodium doses below the threshold (25 mg/kg i.p.)
# Format: in vivo
# Settings: test drug 25 mg/kg intragastric single dose, pentobarbital sodium 25 mg/kg i.p. 60 min later, sleep observed in 30 min, n = 10
# Summary of the method: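 Kunming mice (10 per group, half female) given single oral doses of 25, 50 or 100 mg/kg in 0.5% CMC-Na; 60 min later pentobarbital sodium 25 mg/kg i.p. Sleep (righting reflex lost >1 min) scored within 30 min as percentage asleep, χ2 test.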
Structure (SMILES),Number of sleeping animals,rate of sleeping (%)
"COc1ccc(-c2cc(=O)c3c(OC)c(OC)c(OC)c(OC)c3o2)cc1 [Example 8, 5,6,7,8,4′-penta methoxyl-flavone]",5,50** %
"COc1cc(OC)c2c(=O)cc(-c3cc(OC)c(OC)c(OC)c3)oc2c1 [Example 1, 5,7,3′,4′,5′-penta methoxyl-flavone]",5,50** %

# Same assay, conditions: test drug 50 mg/kg intragastric single dose, pentobarbital sodium 25 mg/kg i.p. 60 min later, sleep observed in 30 min, n = 10
Structure (SMILES),Number of sleeping animals,rate of sleeping (%)
"COc1ccc(-c2cc(=O)c3c(OC)c(OC)c(OC)c(OC)c3o2)cc1 [Example 8, 5,6,7,8,4′-penta methoxyl-flavone]",6,60** %
"COc1cc(OC)c2c(=O)cc(-c3cc(OC)c(OC)c(OC)c3)oc2c1 [Example 1, 5,7,3′,4′,5′-penta methoxyl-flavone]",7,70** %

# Same assay, conditions: test drug 100 mg/kg intragastric single dose, pentobarbital sodium 25 mg/kg i.p. 60 min later, sleep observed in 30 min, n = 10
Structure (SMILES),Number of sleeping animals,rate of sleeping (%)
"COc1ccc(-c2cc(=O)c3c(OC)c(OC)c(OC)c(OC)c3o2)cc1 [Example 8, 5,6,7,8,4′-penta methoxyl-flavone]",8,80*** %
"COc1cc(OC)c2c(=O)cc(-c3cc(OC)c(OC)c(OC)c3)oc2c1 [Example 1, 5,7,3′,4′,5′-penta methoxyl-flavone]",10,100*** %

# System: Kunming mice
# Test: Influence on hypnosis effect with pentobarbital sodium doses at the threshold (50 mg/kg i.p.)
# Format: in vivo
# Settings: 25 mg/kg intragastric single dose, pentobarbital sodium 50 mg/kg i.p. 60 min later, x ± s, n = 10
# Summary of the method: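 Kunming mice (10/group, half each sex) received compound in 0.5% CMC-Na intragastrically at 25, 50 or 100 mg/kg; 60 min later given 0.3% sodium pentobarbital 50 mg/kg i.p. Sleep latency and duration recorded by loss of righting reflex over 1 min; ANOVA and χ2 for sleep incidence.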
Structure (SMILES),duration of sleep [min],time to sleep [min]
"COc1ccc(-c2cc(=O)c3c(OC)c(OC)c(OC)c(OC)c3o2)cc1 [Example 8, 5,6,7,8,4′-penta methoxyl-flavone]",21.52 ± 16.93,5.40 ± 1.83
"COc1cc(OC)c2c(=O)cc(-c3cc(OC)c(OC)c(OC)c3)oc2c1 [Example 1, 5,7,3′,4′,5′-penta methoxyl-flavone]",65.42 ± 27.30,3.84 ± 1.65

# Same assay, conditions: 50 mg/kg intragastric single dose, pentobarbital sodium 50 mg/kg i.p. 60 min later, x ± s, n = 10
Structure (SMILES),duration of sleep [min],time to sleep [min]
"COc1ccc(-c2cc(=O)c3c(OC)c(OC)c(OC)c(OC)c3o2)cc1 [Example 8, 5,6,7,8,4′-penta methoxyl-flavone]",29.13 ± 26.44,5.05 ± 1.73
"COc1cc(OC)c2c(=O)cc(-c3cc(OC)c(OC)c(OC)c3)oc2c1 [Example 1, 5,7,3′,4′,5′-penta methoxyl-flavone]",78.60 ± 14.67,3.54 ± 1.44

# Same assay, conditions: 100 mg/kg intragastric single dose, pentobarbital sodium 50 mg/kg i.p. 60 min later, x ± s, n = 10
Structure (SMILES),duration of sleep [min],time to sleep [min]
"COc1ccc(-c2cc(=O)c3c(OC)c(OC)c(OC)c(OC)c3o2)cc1 [Example 8, 5,6,7,8,4′-penta methoxyl-flavone]",66.82 ± 33.63,3.21 ± 1.32
"COc1cc(OC)c2c(=O)cc(-c3cc(OC)c(OC)c(OC)c3)oc2c1 [Example 1, 5,7,3′,4′,5′-penta methoxyl-flavone]",98.33 ± 21.63,2.75 ± 1.62
